The values below come from patent publication US4863920A, “Imidazodiazepine derivatives for treatment of disorders of the central nervous system” (Hoffmann-La Roche Inc., priority 1987, dated 1989).

Structures are written as SMILES.

For data set [1], the system named is diazepam effect in the pentetrazole test. Briefly: Antagonism of diazepam in the pentetrazole test. The format is in vivo. Conditions: Mus musculus, po; mice; diazepam 5 mg/kg i.p. one hour before and compound p.o. 15 minutes before pentetrazole 120 mg/kg i.p.; read-out: Antagonism of diazepam ED 50. Here is the method: This property was used to elaborate the test described hereinafter which permits the investigation of compounds capable of antagonizing the central properties of 1,4-benzodiazepines having tranquillizing activity.
(§1) The antagonistic activity of the compounds investigated, that is, their capability to counteract the effect of the diazepam in the pentetrazole test, is determined by counting the mice which suffer spasmodic seizures in this test. The ED50 denotes the amount of the respective test compound in mg/kg (p.o.) which in 50% of the animals counteracts the diazepam effect in the above test.

A short description of data set [2]: Acute toxicity, single oral administration to rats. Conditions: rat, in vivo, read-out: Toxicity LD 50. The source says: The results which have been obtained with representative members of the class of compound defined by formula I in the experiments described previously are compiled in the following Table. Moreover, the Table contains data concerning the acute toxicity of some of these compounds (LD50 in mg/kg in the case of single oral administration to rats).

In data set [3] the target is central benzodiazepine receptors (cerebral cortex). Briefly: Affinity to benzodiazepine receptors (inhibition of tritiated diazepam binding in cerebral cortex). Conditions: inhibition of specific binding of tritiated diazepam, read-out: Affinity to benzodiazepine receptors IC 50. Here is the method:
The affinity of compounds of formula I to the central benzodiazepine receptors was determined according to the method described in Life Science 20, 2101-2110 (1977) and Science 198, 849-851 (1977). According to this method, the inhibition of the binding of tritiated diazepam at the specific benzodiazepine receptors in the cerebral cortex by the respective test substances is ascertained. The IC50 ("50% inhibiting concentration") is that concentration of the respective test substance which brings about a 50 percent inhibition of the specific binding of the tritiated diazepam at the specific benzodiazepine receptors in the cerebral cortex.

Data set [4] has as its system pentetrazole-induced spasmodic seizures. As to the kind of experiment: Pentetrazole test, protection by diazepam. The format is in vivo. To be noted: 5 mg/kg (i.p.) diazepam, supramaximal dosage; more than 900 mice. Here is the method: as §1
For data set [5] the test system is unchanged. Briefly: Antipentetrazole test (protection from pentetrazole seizures). Type of data set: in vivo. Conditions: Rattus norvegicus, po; female rats 60-80 g; p.o. 30 minutes before 120 mg/kg pentetrazole i.p.; 10 animals per dosage; Probit; read-out: Antipemtetrazole test ED 50. Here is the method: The central properties of the compounds of formula I in accordance with the invention can be determined, for example, in the antipentetrazole animal model which is described hereinafter and which is generally recognized for recording anticonvulsant properties.
In this animal model, the compound under investigation is administered orally to female rats weighing 60-80 g and 30 minutes later there are administered i.p. 120 mg/kg of pentetrazole, which causes emprosthotonus and tonic stretchings of the fore and/or hind limbs in unprotected experimental animals 1-4 minutes after the injection. Ten experimental animals are used per dosage of test substance. After counting the protected experimental animals the ED50 is determined according to the Probit method. The ED50 is that dosage which protects 50% of the experimental animals from the spasmodic seizures caused by pentetrazole.

Regarding `C=Cc1ncn2c1CN(C)C(=O)c1c(Cl)cccc1-2` [F, 7-chloro-4,5-dihydro-5-methyl-3-vinyl-6H-imidazo[1,5-a][1,4]benzodiazepin-6-one], the ED50 in data set [1] worked out at 1.2 mg/kg. Moreover, the LD50 in data set [2] was in the range of 1250 to 2500 mg/kg. Moreover, in data set [3], the IC50 came to 7.6 nM.

Turning to `CN1C(=O)CN=C(c2ccccc2)c2cc(Cl)ccc21` [diazepam], in data set [4], the “protection from spasmodic seizures in the pentetrazole test” value was “protected all experimental animals from spasmodic seizures”.

Regarding `C#Cc1ncn2c1[C@@H]1CCCN1C(=O)c1c(Cl)cccc1-2` [D, (S)-8-chloro-1-ethynyl-11,12,13,13a-tetrahydro-9H-imidazo[1,5-a]pyrrolo[2,1-c][1,4]benzodiazepin-9-one], the ED50 is above 50 mg/kg in data set [1] and 1.5 mg/kg in data set [5]. Also, the LD50 in data set [2] is above 4000 mg/kg. The IC50 in data set [3] is 2.4 nM.

As to `C#Cc1ncn2c1CN(C)C(=O)c1cc(F)ccc1-2` [B, 3-ethynyl-8-fluoro-4,5-dihydro-5-methyl-6H-imidazo[1,5-a][1,4]benzodiazepine-6-one], the ED50 in data set [1] is 1.5 mg/kg. Moreover, in data set [2], the LD50 was 312 to 625 mg/kg. The IC50 in data set [3] amounted to 24 nM.

`CC#Cc1ncn2c1CN(C)C(=O)c1c(Cl)cccc1-2` [C, 7-chloro-4,5-dihydro-5-methyl-3-(1-propynyl)-6H-imidazo[1,5-a][1,4]benzodiazepin-6-one]: the ED50 in data set [1] was determined as 0.36 mg/kg. In addition, the LD50 in data set [2] is above 5000 mg/kg. Further, in data set [3], the IC50 stood at 2.3 nM.

As for `C#Cc1ncn2c1CN(C)C(=O)c1c(Cl)cccc1-2` [A, 7-chloro-3-ethynyl-4,5-dihydro-5-methyl-6H-imidazo[1,5-a][1,4]benzodiazepin-6-one], the ED50 in data set [1] was 0.24 mg/kg. In addition, in data set [2], the LD50 lay within 312 to 625 mg/kg. Also, the IC50 in data set [3] came out at 4.5 nM.

`CN1Cc2c(C#CC(C)(C)O)ncn2-c2cccc(Br)c2C1=O` [E, 7-bromo-4,5-dihydro-3-(3-hydroxy-3-methyl-1-butynyl)-5-methyl-6H-imidazo[1,5-a][1,4]benzodiazepin-6-one]: the LD50 in data set [2] is 500 to 1000 mg/kg. The IC50 in data set [3] is 2 nM. The ED50 in data set [5] was found to be 0.29 mg/kg.
